Data reported in patent publication US4524070A, “Aminated derivatives of pyridazine substituted in 6 position by a heterocycle or an alicycle and compositions, said derivatives being active on the central nervous system” (Sanofi, priority 1983, dated 1985).

Key:
[1] = system: ptosis induced by reserpine; test: Antagonism of ptosis induced by reserpine; type: in vivo, mouse (female CDI Charles River); conditions: Mus musculus, ip, simultaneous with reserpine 2 mg/kg i.v.; read 1 hour after; batches of 10 mice
Protocol: Antagonism of ptosis induced by reserpine This test described by GOURET (Journal de Pharmacologie, Paris, 1973, 4 (1), 105-128) was carried out on the female CDI (Charles River) mouse weighing 20±1 g. Reserpine induces a ptosis 1 hour after its intravenous administration; certain antidepressants oppose this ptosis. The following protocol was chosen. The substances to be studied were administered i.p. The reserpine was administered simultaneously by the intravenous route at the dose of 2 mg/kg. 1 hour after administration of reserpine, the number of animals not presenting ptosis was noted. This test was carried out on batches of 10 mice and the percentage of animals not presenting ptosis was determined. The results are expressed in effective dose 50 (ED50) or dose preventing ptosis in 50% of the animals treated.

monoamine oxydase A = molecular target: T1, monoamine oxydase A (Rattus norvegicus, UniProt P21396); test: Measurement of the MAO A activity in vitro; type: biochemical; conditions: rat striatum, 14C 5-hydroxytryptamine 480 μM, pH 7.40, 10 minutes
T1 construct: using the striatum of rate as source of enzyme; from tissue; host or cells: rat striatum homogenate
T1 sequence (P21396 1-526): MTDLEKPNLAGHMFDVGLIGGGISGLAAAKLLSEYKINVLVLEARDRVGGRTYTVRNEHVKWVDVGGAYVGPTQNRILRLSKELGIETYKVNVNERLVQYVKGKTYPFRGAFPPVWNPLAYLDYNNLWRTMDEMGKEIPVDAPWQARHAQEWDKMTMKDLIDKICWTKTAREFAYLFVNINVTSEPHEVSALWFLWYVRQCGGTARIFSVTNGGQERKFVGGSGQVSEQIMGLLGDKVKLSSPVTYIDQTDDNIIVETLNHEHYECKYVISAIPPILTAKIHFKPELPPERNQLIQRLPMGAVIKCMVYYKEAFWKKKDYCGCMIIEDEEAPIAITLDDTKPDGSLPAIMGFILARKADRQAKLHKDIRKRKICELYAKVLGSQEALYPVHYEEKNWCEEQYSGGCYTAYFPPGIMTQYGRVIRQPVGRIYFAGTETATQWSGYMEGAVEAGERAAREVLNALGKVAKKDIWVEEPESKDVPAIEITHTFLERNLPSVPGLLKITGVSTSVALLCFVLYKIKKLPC
Protocol: Measurement of the MAO A activity in vitro
After dissection, the tissues are homogenized in 16 volumes (weight per volume) of iced phosphate buffer (0.1M, pH=7.40). […] The acid metabolites are extracted in 7 ml of a toluene/ethyl acetate (1:1, vol/vol) mixture then counted by liquid scintillation. The concentration of the product tested which inhibits the control activity by 50% (I.C.50) is determined graphically.

dopaminergic activity = test: Rotations test: behaviour of rotation after unilateral lesion of the striatum (dopaminergic activity); type: in vivo, mouse (female Charles River CDI); conditions: 1 hour after administration, counted for 2 minutes
Protocol: This was studied by analysis of the behaviour of rotation in the mouse after unilateral lesion of the striatum (P. Protais et al., J. Pharmacol., 1976, 7, 251).
Female Charles River CDI mice weighing from 20 to 24 g were previously subjected to a unilateral lesion of the striatum by stereotaxic injection of 6-hydroxydopamine at the rate of 8 mcg per animal. One week after this operation, the products to be studied were administered by the intraperitoneal route to groups of 7 mice. 1 hour after administration of the product, the number of rotations is determined for a period of 2 minutes. The rotations ispilateral with respect to the lesion are counted positively and the contralateral rotations are counted negatively.
The algebraic sum of the rotations for a group of treated animals is compared with that of the group of control animals having received only the vehicle (physiological serum).
The results are expressed in % variation of the rotations of the treated animals with respect to the control animals.

[2] = molecular target: cholinergic receptors of muscarinic type; type: binding; conditions: rat cerebra without cerebellum, 0.05 nM QNB (^3 H), 25° C., 1 hour, pH 7.4; read-out: Bond with QNB (^3 H) IC50
[3] = system: central serotoninergic transmission; test: Potentialization of the head twitches induced by 5-hydroxytryptophane (5-HTP test); type: in vivo, mouse (female CDI Charles River); conditions: 1 hour before 5-hydroxytryptophane 200 mg/kg i.p., % with respect to control mice
Protocol: Potentialization of the head twitches induced by 5-hydroxytryptophane
The 5-hydroxytryptophane, precursor of the 5-hydroxytryptamine, induces in the mouse typical behaviour characterized by sudden head twitches.
At time zero, the product to be studied is administered by the intraperitoneal route then, 1 hour afterwards, a single dose (200 mg/kg) of 1-5-hydroxytryptophane in suspension in distilled water is in turn administered by the same route. Each animal (female CDI Charles River mouse weighing from 22 to 24 g) is immediately placed in a cylindrical glass beaker. The number of head twitches is counted for 20 minutes.
For each dose of the product to be tested, batches of 10 animals are experimented on, in comparison with a control batch which receives only the vehicle.
The results are expressed in % with respect to the average score obtained in the control mice.

[4] = dose 10 mg/kg i.p., result in words

Structure (SMILES): Cc1cc(-c2cccs2)nnc1NCCN1CCOCC1.Cl.Cl [CM 30387, 3-morpholinoethylamino-4-methyl-6-(2-thienyl)pyridazine, dihydrochloride]
- ED50 [1]: 4.8 mg/kg
- MAO A Inhibition IC50 (monoamine oxydase A): 10 mg/kg
- Rotations test % variation (dopaminergic activity; [4]): Inactive
- IC50 [2]: 24 µM
- 5-HTP test % variation ([3]; dose 8 mg/kg i.p., **p 0.01): 632%

Structure (SMILES): Cc1cc(-c2ccsc2)nnc1NCCN1CCOCC1.Cl.Cl [CM 30388, 3-morpholinoethylamino-4-methyl-6-(3-thienyl)-pyridazine, dihydrochloride]
- ED50 [1]: 10.3 mg/kg
- MAO A Inhibition IC50 (monoamine oxydase A): 7.8 mg/kg
- Rotations test % variation (dopaminergic activity; [4]): Inactive
- IC50 [2]: 18 µM
- 5-HTP test % variation ([3]; dose 8 mg/kg i.p., **p 0.01): 647%

Structure (SMILES): Cc1cc(C2CCCCC2)nnc1NCCN1CCOCC1.Cl.Cl [CM 30390, 3-morpholinoethylamino-4-methyl-6-cyclohexyl-pyridazine; dihydrochloride]
- ED50 [1]: 4.5 mg/kg
- Rotations test % variation (dopaminergic activity; [4]): Inactive
- IC50 [2]: 14 µM
- 5-HTP test % variation ([3]; dose 7.5 mg/kg i.p., *p 0.05): 219%

Structure (SMILES): Cc1cc(-c2ccccc2)nnc1NCCN1CCOCC1 [Minaprine, reference compound]
- ED50 [1]: 5 mg/kg
- MAO A Inhibition IC50 (monoamine oxydase A): 16 mg/kg
- Rotations test % variation (dopaminergic activity; dose 0.5 mg/kg i.p., vs control animals, **p 0.01): -79%
- IC50 [2]: 100 µM
- 5-HTP test % variation ([3]; dose 10 mg/kg i.p., *p 0.05): 257%
